# Experimental data taken from ChEMBL document CHEMBL1132509, “Aminoisoquinolines: design and synthesis of an orally active benzamidine isostere for the inhibition of factor XA” (Bioorg Med Chem Lett, 1999).
# Tests used:
# [1] = pKa value was determined.; format: physicochemical
# Serine protease 1 = Serine protease 1 (Homo sapiens, UniProt P07477); assay: In vitro evaluation of inhibitory activity against trypsin
# Prothrombin = Prothrombin (Homo sapiens, UniProt P00734); assay: In vitro evaluation of inhibitory activity against Coagulation factor II in prothrombinase complex
# Coagulation factor X = Coagulation factor X (Bos taurus, UniProt P00743); assay: In vitro evaluation of inhibitory activity against Coagulation factor X in prothrombinase complex
# Sequence of Coagulation factor X (P00743 41-180 limits assumed): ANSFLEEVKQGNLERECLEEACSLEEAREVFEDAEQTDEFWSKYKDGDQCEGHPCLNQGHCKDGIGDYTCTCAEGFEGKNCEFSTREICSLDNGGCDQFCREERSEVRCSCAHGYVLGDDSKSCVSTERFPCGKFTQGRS
# Sequence of Coagulation factor X (P00743 234-492 limits assumed): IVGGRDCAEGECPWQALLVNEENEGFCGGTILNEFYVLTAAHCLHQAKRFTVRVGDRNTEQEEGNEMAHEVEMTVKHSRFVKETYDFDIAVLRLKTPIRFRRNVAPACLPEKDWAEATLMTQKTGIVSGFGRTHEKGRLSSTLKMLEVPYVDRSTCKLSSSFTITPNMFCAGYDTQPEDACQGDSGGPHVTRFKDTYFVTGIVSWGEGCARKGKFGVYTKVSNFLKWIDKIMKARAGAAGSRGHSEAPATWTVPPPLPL
# [2] = Maximum concentration in plasma was reported at 0.5 hour; format: ADME, organism-based; details: read-out: CPmax
# [3] = Ratio of inhibitory activity against plasminogen activator to that of factor Xa
# [4] = Ratio of inhibitory activity against […] to that of factor Xa
# [5] = Ratio of inhibitory activity against Plasmin to that of factor Xa
# [6] = Ratio inhibitory activity against coagulation factor IIa to that of factor Xa
# [7] = Ratio of inhibitory activity against activated protein C to that of factor Xa
# [8] = Maximum concentration in plasma was reported at 2 hour; format: ADME, organism-based; details: read-out: CPmax
# Sequence of Serine protease 1 (P07477 whole entry): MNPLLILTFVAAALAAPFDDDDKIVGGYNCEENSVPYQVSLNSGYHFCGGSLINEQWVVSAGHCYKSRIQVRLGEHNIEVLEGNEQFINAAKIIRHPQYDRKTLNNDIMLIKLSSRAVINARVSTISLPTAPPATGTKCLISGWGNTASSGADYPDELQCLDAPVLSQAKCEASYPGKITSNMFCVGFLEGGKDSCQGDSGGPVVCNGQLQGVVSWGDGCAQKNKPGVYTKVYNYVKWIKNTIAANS
Compound,pKa [1],Ki (Serine protease 1) [nM],Ki (Prothrombin) [nM],Ki (Coagulation factor X) [nM],further results
COc1ccc2ccc(S(=O)(=O)N[C@H]3CCN(Cc4ccc5ccnc(N)c5c4)C3=O)cc2c1,7.6,> 2900,1350,,
COc1ccc2ccc(S(=O)(=O)NC3CCN(Cc4ccc5nc(N)ccc5c4)C3=O)cc2c1 (stereo not drawn),7.3,> 2900,> 4000,1200,
COc1ccc2ccc(S(=O)(=O)N[C@H]3CCN(Cc4cc(C(=N)N)ccc4N)C3=O)cc2c1,,,,6,
COc1ccc2ccc(S(=O)(=O)N[C@H]3CCN(Cc4cc5c(N)nccc5cc4OC)C3=O)cc2c1,,,,890,
COc1ccc2ccc(S(=O)(=O)N(C)[C@H]3CCN(Cc4csc(C(=N)N)c4)C3=O)cc2c1,,,,,Cmax [2]: 3100 nM
COc1ccc2ccc(S(=O)(=O)NC3CCN(Cc4ccc5ccc(N)nc5c4)C3=O)cc2c1 (stereo not drawn),7.3,> 2900,~4000,370,
COc1ccc2ccc(S(=O)(=O)N(C)[C@H]3CCN(Cc4ccc5ncnc(N)c5c4)C3=O)cc2c1,5.3,> 2900,> 4000,1600,
COc1ccc2ccc(S(=O)(=O)N[C@H]3CCN(Cc4cc5c(N)nccc5cc4N)C3=O)cc2c1,,,,80,
COc1ccc2ccc(S(=O)(=O)NC3CCN(Cc4cc5c(N)nccc5s4)C3=O)cc2c1 (stereo not drawn),,> 2900,~4000,250,
N=C(N)c1cccc(CN2CC[C@H](NS(=O)(=O)c3cc4ncccc4s3)C2=O)c1,,,,26,Ratio [3]: > 335; Ratio [4]: > 110; Ratio [5]: > 280; Ratio [6]: > 150; Ratio [7]: 440
COc1ccc2ccc(S(=O)(=O)N[C@H]3CCN(Cc4ccc5ccnc(Cl)c5c4)C3=O)cc2c1,,,,> 1200,
Nc1nccc2ccc(CN3CC[C@H](NS(=O)(=O)c4cc5ncccc5s4)C3=O)cc12,,,,,Ratio [3]: > 395; Cmax [8]: 2700 nM; Ratio [4]: > 131; Ratio [5]: > 330; Ratio [6]: > 181; Ratio [7]: > 841
COc1ccc2ccc(S(=O)(=O)N[C@H]3CCN(Cc4ccc5ccnc(O)c5c4)C3=O)cc2c1,,,,> 1200,
COc1ccc2ccc(S(=O)(=O)N[C@H]3CCN(Cc4cccc(C(=N)N)c4)C3=O)cc2c1,11.6,850,,,
